Test results: publication PMC7880554 (ACS chemical biology, 2016)

Target: Culp1 (Rv1984c) (Mycobacterium tuberculosis, UniProt P9WP43)
Settings: band identified by mass spectrometry; transposon mutant control

Chain of Culp1 (Rv1984c) (P9WP43 33-217): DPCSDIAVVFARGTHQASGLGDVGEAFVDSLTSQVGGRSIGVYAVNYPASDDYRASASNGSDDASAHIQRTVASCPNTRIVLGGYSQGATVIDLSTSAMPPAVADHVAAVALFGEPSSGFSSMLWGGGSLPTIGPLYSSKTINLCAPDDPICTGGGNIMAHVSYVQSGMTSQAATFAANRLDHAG

CCCCCCCC(=O)OCOc1ccc2c(c1)C(C)(C)C1=C(Cl)C(=O)C(Cl)=CC1=N2 [DDAO-7-OME]
in-gel fluorogenic activity, native PAGE-resolved lysate: DDAO-7-OME provided the clearest Mtb banding patterns in these complex lysates and revealed Culp1 activity
